Columns and labels:
TLR2/6 = biological target: T1, TLR2/6 (Homo sapiens, UniProt O60603); test: HEK-Blue hTLR2 SEAP reporter assay, Pam2CSK4-activated (TLR2/6); assay type: cell-based; conditions: hTLR2 HEK cells activated with Pam2CSK4; mean of at least three determinations; read-out: IC50 (PAM-2; μM)
T1 construct: host or cells: HEK293 (HEK-Blue hTLR2)
Text: (§1) Human embryonic kidney (HEK) Blue hTLR2 secreted embryonic alkaline phosphatase (SEAP) reporter 293 cells, expressing the human TLR2 gene; HEK-Blue hTLR3 SEAP reporter 293 cells, expressing the human TLR3 gene; HEK-Blue hTLR4 SEAP reporter 293 cells, expressing the human TLR4 gene; HEK-Blue hTLR7 SEAP reporter 293 cells, expressing the human TLR7 gene; and HEK-Blue hTLR8 SEAP reporter 293 cells, expressing the human TLR8 gene. HEK Blue cells expressing recombinant human TLRs were obtained by cotransfection of the human TLR2, TLR3, TLR4, TLR7, TLR8, or TLR9 and SEAP (secreted embryonic alkaline phosphatase) genes into HEK293 cells. The SEAP reporter gene was placed under the control of a minimal promoter fused to five NFĸB and AP-1 binding sites. Stimulation with TLRs ligands activates NFĸB and AP-1 that induce the production of SEAP. Therefore, these cells are designed for studying the stimulation of TLRs by monitoring the activation of NFĸB/AP-1. These NFĸB reporter cell lines were used as a primary screening tool due to their robust and well-characterized responses to TLRs activators and inhibitors. […]

TLR1/2 = biological target: T2, TLR1/2 (Homo sapiens, UniProt O60603); test: HEK-Blue hTLR2 SEAP reporter assay, Pam3CSK4-activated (TLR1/2); assay type: cell-based; conditions: hTLR2 HEK cells activated with Pam3CSK4; mean of at least three determinations; read-out: IC50 (PAM-3; μM)
T2 construct: host or cells: HEK293 (HEK-Blue hTLR2)
T2 sequence (O60603 21-784): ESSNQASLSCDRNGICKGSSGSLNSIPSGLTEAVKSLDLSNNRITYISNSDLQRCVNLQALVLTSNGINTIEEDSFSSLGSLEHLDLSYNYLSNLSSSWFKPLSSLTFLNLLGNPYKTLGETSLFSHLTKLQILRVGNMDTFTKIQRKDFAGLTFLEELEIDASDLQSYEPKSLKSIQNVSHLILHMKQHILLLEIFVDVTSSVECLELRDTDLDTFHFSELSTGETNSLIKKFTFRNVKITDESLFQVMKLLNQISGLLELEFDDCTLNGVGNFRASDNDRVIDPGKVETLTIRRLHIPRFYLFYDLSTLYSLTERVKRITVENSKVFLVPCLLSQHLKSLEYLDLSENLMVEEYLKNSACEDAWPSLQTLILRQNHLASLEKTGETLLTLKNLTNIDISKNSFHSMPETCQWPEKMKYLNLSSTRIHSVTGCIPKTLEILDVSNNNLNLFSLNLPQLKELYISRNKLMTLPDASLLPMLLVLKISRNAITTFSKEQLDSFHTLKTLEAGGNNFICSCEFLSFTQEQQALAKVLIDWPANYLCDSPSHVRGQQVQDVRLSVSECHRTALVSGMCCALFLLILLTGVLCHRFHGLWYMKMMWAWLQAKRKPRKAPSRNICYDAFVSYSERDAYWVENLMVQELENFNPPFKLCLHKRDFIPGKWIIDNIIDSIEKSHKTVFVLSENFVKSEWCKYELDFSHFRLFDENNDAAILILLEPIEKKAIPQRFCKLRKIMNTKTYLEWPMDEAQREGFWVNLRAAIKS
Text: as §1

T1 sequence (O60603 21-784): as above

How did the IC50 (TLR2/6) turn out when COc1cccc(C=O)c1O [O-vanillin] was run?
The IC50 was 61.6 µM.

What about the IC50 (TLR1/2) of the same molecule?
Its IC50 is 40.2 µM.

— PMC8898874, “NPT1220-312, a TLR2/TLR9 Small Molecule Antagonist, Inhibits Pro-Inflammatory Signaling, Cytokine Release, and NLRP3 Inflammasome Activation” (International Journal of Inflammation, 2022)
